Results as given in ChEMBL document CHEMBL4400517, “Marine natural products as potential anti-tubercular agents” (Eur J Med Chem, 2019).
In brackets after ≈: the same amount, converted by molar mass.

Legend:
Conditions in all cases: variant bovis BCG
[1] = system: Mycobacterium tuberculosis; assay: Antimycobacterial activity against Mycobacterium bovis BCG; type: functional
[2] = system: Mycobacterium tuberculosis; assay: Antibiofilm activity against Mycobacterium bovis BCG; type: functional, organism-based
[3] = system: Mycobacterium tuberculosis; assay: Antibiofilm activity against Mycobacterium bovis BCG after 5 weeks; type: functional

**Q.** With `C1=C2CCCC/C=C\C=C\CCN3CC[C@@H]4[C@H](CCCCCC/C=C\C=C/CCN(C2)C[C@H]14)C3` (relative stereo) [HALICYCLAMINE A] as the molecule, how does the MIC [1] read?
**A.** The MIC was 2.16 to 10.8 µM (≈ 1 to 5.01 µg/mL).

**Q.** How did the MIC [1] turn out when `COC(=O)N[C@H]1[C@@H](C)O[C@@H](O[C@H]2C/C=C(\C)[C@@H]3C=C[C@@H]4[C@@H](O[C@@H]5C[C@@H](O[C@@H]6C[C@@H](O)[C@@H](O[C@H]7C[C@@H](C)[C@H](OC)[C@H](O)C7)[C@H](C)O6)[C@@H](O)[C@H](C)O5)[C@@H](C)C[C@H](C)[C@H]4[C@]3(C)C(=O)C3=C(O)[C@@]4(C[C@@H](C)C(CO)=C[C@H]4/C=C/2C)OC3=O)C[C@]1(C)N` was run?
**A.** The MIC was 1.35 µM (≈ 1.56 µg/mL).

**Q.** Which IC50 [2] does the source give for `COc1cc(O)c2c(c1)[C@@]13CC(=C(C)C)C[C@H]1[C@](C)(CCC=C(C)C)[C@@](Br)(C2=O)C3=O` here?
**A.** Its IC50 is 0.64 to 10.3 µM.

**Q.** With `CC(C)=C/C=C\[C@H](C)[C@H]1CC[C@]2(C)C[C@H]3[C@H](C(=O)C[C@@]3(C)O)/C(C=O)=C\C[C@@H]12` as the molecule, how does the MIC [3] read?
**A.** The MIC was 8.2 µM (≈ 3.15 µg/mL).

**Q.** How did the MIC [1] turn out when `C=CC(C)(C)c1[nH]c2ccccc2c1/C=c1\[nH]c(=O)c2n(c1=O)CCC=2C1=c2c(=O)[nH]/c(=C\c3c(C(C)(C)C=C)[nH]c4ccccc34)c(=O)n2CC1` was run?
**A.** The MIC was 9.03 µM (≈ 6.26 µg/mL).

**Q.** For `COc1cc(OC)c2c(c1)[C@@]13CC(=C(C)C)C[C@H]1[C@](C)(CCC=C(C)C)[C@@](Br)(C2=O)C3=O`, which IC50 [2] is on record?
**A.** Its IC50 is 0.16 to 2.5 µM.

**Q.** With `O=C1N[C@@H](Cc2c[nH]c3ccccc23)C(=O)N2CCC[C@@H]12` [BREVIANAMIDE F] as the molecule, how does the MIC [1] read?
**A.** The MIC was 44.2 µM (≈ 12.5 µg/mL).

**Q.** For `COC(=O)N[C@H]1[C@@H](C)O[C@@H](O[C@H]2C/C=C(\C)[C@@H]3C=C[C@@H]4[C@@H](O[C@@H]5C[C@@H](O[C@@H]6C[C@@H](O)[C@@H](O[C@H]7C[C@@H](C)[C@H](OC)[C@H](O)C7)[C@H](C)O6)[C@@H](O)[C@H](C)O5)[C@@H](C)C[C@H](C)[C@H]4[C@]3(C)C(=O)C3=C(O)[C@@]4(C[C@@H](C)C(CO)=C[C@H]4/C=C/2C)OC3=O)C[C@]1(C)[N+](=O)[O-]`, which MIC [1] is on record?
**A.** The MIC was 0.66 µM (≈ 0.782 µg/mL).

**Q.** With `CC(C)=C1C[C@H]2C(C)(C)[C@@]3(Br)C(=O)c4c(O)cc(O)cc4[C@]2(C1)C3=O` as the molecule, how does the IC50 [2] read?
**A.** Its IC50 is 0.22 to 13.9 µM.

**Q.** How did the MIC [1] turn out when `COC(=O)N[C@H]1[C@@H](C)O[C@@H](O[C@H]2C/C=C(\C)[C@@H]3C=C[C@@H]4[C@@H](O[C@@H]5C[C@@H](O[C@@H]6C[C@@H](O)[C@@H](O[C@H]7C[C@@H](C)[C@H](OC)[C@H](O)C7)[C@H](C)O6)[C@@H](O)[C@H](C)O5)[C@@H](C)C[C@H](C)[C@H]4[C@]3(C)C(=O)C3=C(O)[C@@]4(C[C@@H](C)C(COC(C)=O)=C[C@H]4/C=C/2C)OC3=O)C[C@]1(C)N` was run?
**A.** The MIC was 1.3 µM (≈ 1.56 µg/mL).

**Q.** With `NNC(=O)c1ccncc1` [ISONIAZID] as the molecule, how does the MIC [1] read?
**A.** Its MIC is 0.36 µM (≈ 0.0494 µg/mL).

**Q.** For `CO[C@H]1/C=C/O[C@@]2(C)Oc3c(C)c(O)c4c(O)c(c(/C=N/N5CCN(C)CC5)c(O)c4c3C2=O)NC(=O)/C(C)=C\C=C\[C@H](C)[C@H](O)[C@@H](C)[C@@H](O)[C@@H](C)[C@H](OC(C)=O)[C@@H]1C` [RIFAMPIN], which IC50 [2] is on record?
**A.** The IC50 was 1.22 µM.

**Q.** With `COC(=O)Nc1coc(C(=O)Nc2coc(C(=O)NCCc3ccc(O)cc3)c2)c1` [PROXIMICIN B] as the molecule, how does the MIC [1] read?
**A.** The MIC was 15.1 µM (≈ 6.25 µg/mL).

**Q.** For `COc1ccc2c(c1)CC1=C2[C@H](O)[C@@]2(O)C(=O)N3CCC[C@H]3C(=O)N2[C@H]1C=C(C)C`, which MIC [1] is on record?
**A.** Its MIC is 2.41 µM (≈ 0.989 µg/mL).
